Laboratory results taken from the supplement of paper PMC12076712.
± gives the standard deviation of the averaged measurements.

Columns and labels:
Assay in all cases: pIC50, competition of probe 3 labelling in live cells
Details in all cases: cell material: Jurkat cells
CDK2 = CDK2 (UniProt P24941)
CDK4 = CDK4 (UniProt P11802)
RIPK1 = RIPK1 (UniProt Q13546)
UniProt P45983 = target: UniProt P45983
UniProt P45984 = target: UniProt P45984
UniProt P49840 = target: UniProt P49840
UniProt P51812 = target: UniProt P51812
UniProt Q02750 = target: UniProt Q02750
CES3 = CES3 (UniProt Q6UWW8)
CTSA = CTSA (UniProt P10619)
FER = FER (UniProt P16591)
LYPLA2 = LYPLA2 (UniProt O95372)
MAP4K5 = MAP4K5 (UniProt Q9Y4K4)
SCCPDH = SCCPDH (UniProt Q8NBX0)
SGK3 = target: T1, SGK3 (UniProt Q96BR1)
T1 sequence (whole entry): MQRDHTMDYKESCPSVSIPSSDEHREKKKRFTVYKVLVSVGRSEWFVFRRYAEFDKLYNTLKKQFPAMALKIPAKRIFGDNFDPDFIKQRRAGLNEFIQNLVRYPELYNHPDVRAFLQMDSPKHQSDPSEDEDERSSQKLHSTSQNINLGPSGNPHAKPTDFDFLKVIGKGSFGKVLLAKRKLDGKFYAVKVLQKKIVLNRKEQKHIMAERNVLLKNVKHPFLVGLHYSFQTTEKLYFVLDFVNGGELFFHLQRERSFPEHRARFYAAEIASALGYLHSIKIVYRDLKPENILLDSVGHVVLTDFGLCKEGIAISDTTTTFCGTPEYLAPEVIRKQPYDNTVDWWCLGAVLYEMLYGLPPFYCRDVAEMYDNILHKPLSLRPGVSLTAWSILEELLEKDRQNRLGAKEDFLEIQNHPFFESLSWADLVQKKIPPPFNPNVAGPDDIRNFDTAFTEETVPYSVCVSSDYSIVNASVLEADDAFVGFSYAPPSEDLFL

SRC = SRC (UniProt P12931)
TLK2 = TLK2 (UniProt Q86UE8)
UniProt O43318 = target: T2, UniProt O43318
T2 sequence (whole entry): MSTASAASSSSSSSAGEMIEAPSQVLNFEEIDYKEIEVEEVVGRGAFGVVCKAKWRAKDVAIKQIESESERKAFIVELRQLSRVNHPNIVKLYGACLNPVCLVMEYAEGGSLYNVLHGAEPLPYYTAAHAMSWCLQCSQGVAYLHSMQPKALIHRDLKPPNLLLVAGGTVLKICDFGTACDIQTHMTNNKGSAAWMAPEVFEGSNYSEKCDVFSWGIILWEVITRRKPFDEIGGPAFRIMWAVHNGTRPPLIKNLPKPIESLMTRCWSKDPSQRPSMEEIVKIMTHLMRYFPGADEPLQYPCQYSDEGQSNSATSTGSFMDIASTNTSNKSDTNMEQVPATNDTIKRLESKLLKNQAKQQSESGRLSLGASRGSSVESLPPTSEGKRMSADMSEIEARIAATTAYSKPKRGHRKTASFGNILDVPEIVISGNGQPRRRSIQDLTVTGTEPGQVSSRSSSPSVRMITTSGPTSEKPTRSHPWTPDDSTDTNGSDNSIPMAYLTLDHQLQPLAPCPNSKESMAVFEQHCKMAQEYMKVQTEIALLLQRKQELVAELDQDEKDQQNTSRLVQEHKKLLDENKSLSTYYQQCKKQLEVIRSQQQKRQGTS

UniProt P19784 = target: UniProt P19784
UniProt P49841 = target: UniProt P49841
UniProt Q13188 = target: T3, UniProt Q13188
T3 sequence (whole entry): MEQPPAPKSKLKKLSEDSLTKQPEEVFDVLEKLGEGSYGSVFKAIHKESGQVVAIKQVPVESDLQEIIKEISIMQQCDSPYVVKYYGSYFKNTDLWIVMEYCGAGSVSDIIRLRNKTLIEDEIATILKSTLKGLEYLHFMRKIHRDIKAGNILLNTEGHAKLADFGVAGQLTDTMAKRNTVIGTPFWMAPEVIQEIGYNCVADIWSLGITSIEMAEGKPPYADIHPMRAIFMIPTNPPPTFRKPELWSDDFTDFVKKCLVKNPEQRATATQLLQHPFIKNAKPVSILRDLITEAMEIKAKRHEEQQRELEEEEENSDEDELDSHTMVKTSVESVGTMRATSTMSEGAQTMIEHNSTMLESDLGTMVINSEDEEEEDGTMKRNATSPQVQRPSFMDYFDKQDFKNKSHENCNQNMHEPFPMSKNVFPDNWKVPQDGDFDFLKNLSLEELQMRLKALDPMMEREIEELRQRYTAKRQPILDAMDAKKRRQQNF

UniProt Q15418 = target: UniProt Q15418
UniProt Q92918 = target: UniProt Q92918
UniProt Q9Y2H1 = target: UniProt Q9Y2H1

Row | pIC50 (CDK2) | pIC50 (CDK4) | pIC50 (RIPK1) | pIC50 (UniProt P45983) | pIC50 (UniProt P45984) | pIC50 (UniProt P49840) | pIC50 (UniProt P51812) | pIC50 (UniProt Q02750) | pIC50 (CES3) | pIC50 (CTSA) | pIC50 (FER) | pIC50 (LYPLA2) | pIC50 (MAP4K5) | pIC50 (SCCPDH) | pIC50 (SGK3) | pIC50 (SRC) | pIC50 (TLK2) | pIC50 (UniProt O43318) | pIC50 (UniProt P19784) | pIC50 (UniProt P49841) | pIC50 (UniProt Q13188) | pIC50 (UniProt Q15418) | pIC50 (UniProt Q92918) | pIC50 (UniProt Q9Y2H1) | Compound
1 | < 4.52 | < 4.52 | < 4.52 | < 4.52 | 4.6 | < 4.52 | < 4.52 | < 4.52 | – | – | – | – | – | – | – | – | – | – | – | – | – | – | – | – | CC#CC(=O)Nc1ccc2ncnc(Nc3cccc(Br)c3)c2c1 [EKI-785]
2 | – | – | – | – | – | – | – | – | < 4.52 | < 4.52 | < 4.52 | < 4.52 | < 4.52 | < 4.52 | < 4.52 | < 4.52 | < 4.52 | < 4.52 | < 4.52 | 4.85 ± 0.27 | < 4.52 | < 4.52 | < 4.52 | < 4.52 | CCc1cnn2c(NCc3ccc[n+]([O-])c3)cc(N3CCCC[C@H]3CCO)nc12 [dinaciclib]
